Assays:
[1] = molecular target: galectin 1 interaction with integrin αMβ2 (Homo sapiens, UniProt P09382); assay: ELISA galectin 1 interaction with integrin αMβ2; assay type: binding; details: FIG. 8E
[2] = molecular target: Gal-3 binding to IGF-R1 (gene IGF1R) (Homo sapiens, UniProt P17931); assay: ELISA Gal-3 binding to Insulin Like Growth Factor 1 Receptor; details: FIGS. 12G-1 to 12G-3
Procedure: Using the ELISA composition assay described herein, in which the compounds were incubated with Gal-3 and the binding of Gal-3 with IGF-Receptor was tested.

[3] = molecular target: T1, recombinant human Gal-3 (Homo sapiens, UniProt P17931); assay: 1H-15N HSQC NMR shifts of 15N-labeled Gal-3 on compound addition; assay type: binding; details: full Gal-3
T1 construct: shifts of whole molecule of Gal-3 (Gal-3 FL); made in house; host or cells: E. coli BL21 (DE3)
Procedure: Heteronuclear ^15N NMR spectroscopy was used to evaluate the interaction of compounds described herein with galectin molecules, including but not limited to Gal-3, to assess the interaction residues on the Gal-3 molecule.
NMR experiments were carried out at 30° C. on Bruker 600 MHz, 700 MHz or 850 MHz spectrometers equipped with H/C/N triple-resonance probes and x/y/z triple-axis pulse field gradient units. […] Raw data were converted and processed by using NMRPipe and were analyzed by using NMRview.

[4] = molecular target: Gal-3 CRD (Homo sapiens, UniProt P17931); assay: Fluorescence Polarization with fluorescein-labeled carbohydrate probe; assay type: binding; details: FITC linked lactose derivative probe
[5] = molecular target: galectin 9 interaction with integrin αMβ2 (Homo sapiens, UniProt O00182); assay: ELISA galectin 9 interaction with integrin αMβ2; assay type: binding; details: FIG. 8E
From the text: (§1) Activated ELISA plate is coated with αMβ2 integrin.

[6] = molecular target: Gal-3 binding to Integrin αMβ2 (Homo sapiens, UniProt P17931); assay: ELISA Gal-3 binding to integrin αMβ2
From the text: Illustrations of functional assays with Gal-3 binding pairing specific antibody with a Glycoprotein ligand, e.g. Gal-3 Binding-Protein (Gal-3 BP), Integrins, etc. (FIGS. 7A and 7B).
as §1

T1 sequence (P17931 whole entry): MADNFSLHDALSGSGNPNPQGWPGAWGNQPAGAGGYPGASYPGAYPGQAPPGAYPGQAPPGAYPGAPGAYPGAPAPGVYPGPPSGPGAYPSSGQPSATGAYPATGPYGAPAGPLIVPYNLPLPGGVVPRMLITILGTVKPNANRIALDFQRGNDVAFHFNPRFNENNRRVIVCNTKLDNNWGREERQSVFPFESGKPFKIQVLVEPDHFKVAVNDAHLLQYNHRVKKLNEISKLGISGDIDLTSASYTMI
Sequence of Gal-3 binding to Integrin αMβ2 (P17931 2-250 limits assumed): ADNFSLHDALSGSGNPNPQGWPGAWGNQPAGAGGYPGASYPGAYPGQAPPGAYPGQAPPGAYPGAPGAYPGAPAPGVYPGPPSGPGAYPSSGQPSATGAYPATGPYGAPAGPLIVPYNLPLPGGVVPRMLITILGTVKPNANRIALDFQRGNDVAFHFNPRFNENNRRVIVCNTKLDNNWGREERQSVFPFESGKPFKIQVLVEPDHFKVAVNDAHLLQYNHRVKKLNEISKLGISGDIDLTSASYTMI
Sequence of galectin 9 interaction with integrin αMβ2 (O00182 whole entry): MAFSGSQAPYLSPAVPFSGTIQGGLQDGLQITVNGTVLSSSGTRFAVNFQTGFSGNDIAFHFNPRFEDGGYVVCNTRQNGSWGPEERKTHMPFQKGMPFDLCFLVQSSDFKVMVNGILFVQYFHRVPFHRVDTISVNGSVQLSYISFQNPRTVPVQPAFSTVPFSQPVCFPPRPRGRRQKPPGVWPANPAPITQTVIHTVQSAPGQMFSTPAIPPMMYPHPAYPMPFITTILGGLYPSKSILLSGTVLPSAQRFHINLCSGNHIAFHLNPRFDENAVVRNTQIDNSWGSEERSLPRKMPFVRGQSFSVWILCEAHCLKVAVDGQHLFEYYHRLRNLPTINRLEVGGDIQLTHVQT
Sequence of galectin 1 interaction with integrin αMβ2 (P09382 2-135 limits assumed): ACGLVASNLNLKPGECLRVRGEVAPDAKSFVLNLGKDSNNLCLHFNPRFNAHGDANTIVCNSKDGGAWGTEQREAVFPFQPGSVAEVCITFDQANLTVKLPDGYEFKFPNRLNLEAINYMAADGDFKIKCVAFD
Sequence of Gal-3 CRD (P17931 whole entry): as the sequence (P17931 whole entry) above
Sequence of Gal-3 binding to IGF-R1 (gene IGF1R) (P17931 2-250 limits assumed): as the sequence (P17931 2-250 limits assumed) above

Row | inhibition of galectin 1 interaction with integrin αMβ2 [1] | effect on Gal-3 binding to IGF-R1 [2] | Fluorescent Polarization inhibition signal [4] | inhibition of galectin 9 interaction with integrin αMβ2 [5] | specificity for Gal-3 vs other galectins (1, 8, 9) ([6]; ELISA with integrin αMβ2, FIGS. 8D and 8E) | inhibition of Integrin αMβ2 interaction with Gal-3 ([6]; ELISA, FIGS. 8B, 8C, 12C) | Structure (SMILES) | interaction with amino-acids located in the CRD site (HSQC NMR) [3]
1 | inhibited | cause inhibition | strong signal | inhibited | non-specific interaction | inhibition | OC[C@H]1O[C@@H](S[C@@H]2O[C@H](CO)[C@H](O)[C@H](n3cc(-c4cccc(F)c4)nn3)[C@H]2O)[C@H](O)[C@@H](n2cc(-c3cccc(F)c3)nn2)[C@H]1O [TD-139] | create disturbances of amino-acid located in the CRD site
2 |  |  |  |  |  |  | Cc1ccc(COc2ccc(C=C3CCn4c3nc(=O)c3ccccc34)cc2)cc1 [AGS-0144, 3-({4-[(4-methylphenyl)methoxy]phenyl}methylidene)-1H,2H,3H,5H-pyrrolo[1,2-a]quinazolin-5-one] | have not directly interact with these amino-acids

From patent US12377102B2, “Compounds for the prevention and treatment of medical disorders and uses thereof” (GALECTIN SCIENCES, LLC, priority 2017, dated 2025)
